From US7838534B2, “Quinuclidine derivatives as M3 antagonists” (Chiesi Farmaceutici S.p.A., priority 2006, dated 2010)

Experiment: lung retention after intratracheal administration (lung homogenate, plasma)
Assay type: in vivo
Details: guinea pig lung; for C48L/C0.5L (amount in the lung 48 hours vs 0.5 hours after administration): intratracheal administration
Description: MRTL and […]/C0.5L (%) are two meaningful and predictive parameters of the duration of a drug's effect after single dose pulmonary administration.

MRT (lung homogenate, inhaled or intranasal, intratracheal 10 nmol/kg, read-out: MRTL (Mean Residence Time in the Lung)) [h]	Compound	C48L/C0.5L (amount in the lung 48 hours vs 0.5 hours after administration) [%]
	CC(C)[N+]1(C)[C@@H]2CC[C@H]1CC(OC(=O)C(CO)c1ccccc1)C2.[Br-] (stereo partly drawn) [ipratropium bromide]	0.3
7.1	C[N+]1(C)[C@@H]2C[C@@H](OC(=O)C(O)(c3cccs3)c3cccs3)C[C@H]1[C@@H]1O[C@@H]12 [tiotropium bromide]	2.3
